Laboratory results from US20240287076A1, “COMPOUNDS FOR TARGETING DEGRADATION OF BRUTON'S TYROSINE KINASE” (BIOGEN MA INC., priority 2021, published 2024).

These molecules were tested against T1, BTK (Homo sapiens, UniProt Q06187) (assay: BTK degradation assay using the HiBiT Method (Nano-Glo HiBiT Lytic Assay, GM01501.3 cells)). Conditions: HiBiT Degradation on GM01501.3 BTK @ 6 hours.
T1 construct: The GM01501.3 cell line endogenously expresses BTK with a HiBiT fusion tag via CRISPR knock-in at its C-terminal region; endogenous in cells; host or cells: GM01501.3 (GM01501 cells engineered by CRISPR knock-in of HiBiT at the BTK locus)
Type: cell-based
Procedure, shortened: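 CRISPR knock-in GM01501.3 cells expressing endogenous BTK with C-terminal HiBiT tag, treated 6 h at 37 °C with compounds, 11-point half-log titration from 10 μM top, duplicates. Remaining BTK quantified by Nano-Glo HiBiT lytic luminescence versus DMSO controls; DC50 reported.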

T1 sequence (Q06187 whole entry, the tested form may be a part): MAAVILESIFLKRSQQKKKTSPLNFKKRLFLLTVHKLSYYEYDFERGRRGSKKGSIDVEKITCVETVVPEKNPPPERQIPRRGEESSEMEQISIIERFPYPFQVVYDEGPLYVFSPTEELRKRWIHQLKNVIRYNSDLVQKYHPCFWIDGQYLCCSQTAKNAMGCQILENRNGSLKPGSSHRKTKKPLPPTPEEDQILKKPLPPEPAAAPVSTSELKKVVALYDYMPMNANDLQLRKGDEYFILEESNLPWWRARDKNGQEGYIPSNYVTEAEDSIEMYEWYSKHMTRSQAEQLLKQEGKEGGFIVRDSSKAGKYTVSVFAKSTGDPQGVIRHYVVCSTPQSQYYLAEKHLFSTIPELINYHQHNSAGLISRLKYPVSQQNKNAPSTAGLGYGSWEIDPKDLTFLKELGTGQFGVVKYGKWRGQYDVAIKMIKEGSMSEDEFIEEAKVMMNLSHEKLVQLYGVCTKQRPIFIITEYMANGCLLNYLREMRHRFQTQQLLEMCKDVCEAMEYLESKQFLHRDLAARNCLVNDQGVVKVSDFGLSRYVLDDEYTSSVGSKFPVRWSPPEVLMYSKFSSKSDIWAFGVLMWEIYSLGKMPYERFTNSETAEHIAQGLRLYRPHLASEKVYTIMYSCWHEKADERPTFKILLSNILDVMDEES

DC50, 100 to 500 nM:
CC(C)(C)c1nc(C(=O)NCc2ccc(-c3ncnn4cc(CCC(F)(F)CN5CCC(c6ccc(C7CCC(=O)NC7=O)cc6)CC5)cc34)cc2F)no1 (stereo not shown) [Example 169, 5-tert-butyl-N-[[4-[6-[4-[4-[4-(2,6-dioxo-3-piperidyl)phenyl]-1-piperidyl]-3,3-difluoro-butyl]pyrrolo[2,1-f][1,2,4]triazin-4-yl]-2-fluoro-phenyl]methyl]-1,2,4-oxadiazole-3-carboxamide]
Cc1cc(-c2ncnn3cc(N4CCN(C(=O)C5CCN(C(=O)c6ccc(OC7CCC(=O)NC7=O)cc6)C5)CC4)cc23)ccc1CNC(=O)c1noc(C(C)(C)C)n1 (stereo not shown) [Example 172, 5-(tert-butyl)-N-(4-(6-(4-(1-(4-((2,6-dioxopiperidin-3-yl)oxy)benzoyl)pyrrolidine-3-carbonyl)piperazin-1-yl)pyrrolo[2,1-f][1,2,4]triazin-4-yl)-2-methylbenzyl)-1,2,4-oxadiazole-3-carboxamide]
Cc1cc(-c2ncnn3cc(N4CCN(C(=O)CCCCNC(=O)c5ccc(OC6CCC(=O)NC6=O)cc5)CC4)cc23)ccc1CNC(=O)c1noc(C(C)(C)C)n1 (stereo not shown) [Example 173, 5-(tert-butyl)-N-(4-(6-(4-(5-(4-((2,6-dioxopiperidin-3-yl)oxy)benzamido)pentanoyl)piperazin-1-yl)pyrrolo[2,1-f][1,2,4]triazin-4-yl)-2-methylbenzyl)-1,2,4-oxadiazole-3-carboxamide]
Cc1cc(-c2ncnn3cc(N4CCN(C(=O)CC5CC(NC(=O)c6ccc(OC7CCC(=O)NC7=O)cc6)C5)CC4)cc23)ccc1CNC(=O)c1noc(C(C)(C)C)n1 (stereo not shown) [Example 175, 5-(tert-butyl)-N-(4-(6-(4-(2-(3-(4-((2,6-dioxopiperidin-3-yl)oxy)benzamido)cyclobutyl)acetyl)piperazin-1-yl)pyrrolo[2,1-f][1,2,4]triazin-4-yl)-2-methylbenzyl)-1,2,4-oxadiazole-3-]
Cc1cc(-c2ncnn3cc(N4CCN(C(=O)CC5CCCCN5C(=O)c5ccc(OC6CCC(=O)NC6=O)cc5)CC4)cc23)ccc1CNC(=O)c1noc(C(C)(C)C)n1 (stereo not shown) [Example 176, 5-(tert-butyl)-N-(4-(6-(4-(2-(1-(4-((2,6-dioxopiperidin-3-yl)oxy)benzoyl)piperidin-2-yl)acetyl)piperazin-1-yl)pyrrolo[2,1-f][1,2,4]triazin-4-yl)-2-methylbenzyl)-1,2,4-oxadiazole-3-carboxamide]
Cc1cc(-c2ncnn3cc(N4CCN(C(=O)c5ccc(CNC(=O)c6ccc(OC7CCC(=O)NC7=O)cc6)nc5)CC4)cc23)ccc1CNC(=O)c1noc(C(C)(C)C)n1 (stereo not shown) [Example 179, 5-(tert-butyl)-N-(4-(6-(4-(6-((4-((2,6-dioxopiperidin-3-yl)oxy)benzamido)methyl)nicotinoyl)piperazin-1-yl)pyrrolo[2,1-f][1,2,4]triazin-4-y1)-2-methylbenzyl)-1,2,4-oxadiazole-3-carboxamide]

DC50, < 100 nM:
Cn1nc(N2CCC(=O)NC2=O)c2ccc(C3CCN(Cc4ccc(-c5cc6nccc(-c7ccc(CNC(=O)N8CC(OC(C)(C)C)C8)c(F)c7)n6n5)cc4F)CC3)cc21 [Example 167, 3-tert-butoxy-N-[[4-[2-[4-[[4-[3-(2,4-dioxohexahydropyrimidin-1-yl)-1-methyl-indazol-6-yl]-1-piperidyl]methyl]-3-fluoro-phenyl]pyrazolo[1,5-a]pyrimidin-7-yl]-2-fluoro-phenyl]methyl]azetidine-1-carboxamide]
Cc1cc(-c2ncnn3cc(CCC(F)(F)CN4CCC(c5ccc(C6CCC(=O)NC6=O)cc5)CC4)cc23)ccc1CNC(=O)c1noc(C(C)(C)C)n1 (stereo not shown) [Example 168, 5-tert-butyl-N-[[4-[6-[4-[4-[4-(2,6-dioxo-3-piperidyl)phenyl]-1-piperidyl]-3,3-difluoro-butyl]pyrrolo[2,1-f][1,2,4]triazin-4-yl]-2-methyl-phenyl]methyl]-1,2,4-oxadiazole-3-carboxamide]
CC(C)(C)c1nc(C(=O)NCc2ccc(-c3ncnn4cc(CCC(F)CN5CCC(c6ccc(NC7CCC(=O)NC7=O)cc6)CC5)cc34)cc2F)no1 (stereo not shown) [Example 170, 5-tert-butyl-N-[[4-[6-[4-[4-[4-[(2,6-dioxo-3-piperidyl)amino]phenyl]-1-piperidyl]-3-fluoro-butyl]pyrrolo[2,1-f][1,2,4]triazin-4-yl]-2-fluoro-phenyl]methyl]-1,2,4-oxadiazole-3-carboxamide]
Cc1cc(-c2ncnn3cc(CCC[C@H](F)CN4CCC(c5ccc(C6CCC(=O)NC6=O)cc5)CC4)cc23)ccc1CNC(=O)c1noc(C(C)(C)C)n1 (stereo partly drawn) [Example 171, 5-tert-butyl-N-[[4-[6-[(4S)-5-[4-[4-(2,6-dioxo-3-piperidyl)phenyl]-1-piperidyl]-4-fluoro-pentyl]pyrrolo[2,1-f][1,2,4]triazin-4-yl]-2-methyl-phenyl]methyl]-1,2,4-oxadiazole-3-carboxamide]
Cc1cc(-c2ncnn3cc(N4CCN(C(=O)C5(CNC(=O)c6ccc(OC7CCC(=O)NC7=O)cc6)CC5)CC4)cc23)ccc1CNC(=O)c1noc(C(C)(C)C)n1 (stereo not shown) [Example 174, 5-(tert-butyl)-N-(4-(6-(4-(1-((4-((2,6-dioxopiperidin-3-yl)oxy)benzamido)methyl)cyclopropane-1-carbonyl)piperazin-1-yl)pyrrolo[2,1-f][1,2,4]triazin-4-yl)-2-methylbenzyl)-1,2,4-oxadiazole-3-carboxamide]
Cc1cc(-c2ncnn3cc(N4CCN(C(=O)C5CC6(CCN(C(=O)c7ccc(OC8CCC(=O)NC8=O)cc7)C6)C5)CC4)cc23)ccc1CNC(=O)c1noc(C(C)(C)C)n1 (stereo not shown) [Example 178, 5-(tert-butyl)-N-(4-(6-(4-(6-(4-((2,6-dioxopiperidin-3-yl)oxy)benzoyl)-6-azaspiro[3.4]octane-2-carbonyl)piperazin-1-yl)pyrrolo[2,1-f][1,2,4]triazin-4-yl)-2-methylbenzyl)-1,2,4-oxadiazole-3-carboxamide]
Cc1cc(-c2ncnn3cc(N4CCN(C(=O)CCCCCCCCNC(=O)c5ccc(OC6CCC(=O)NC6=O)cc5)CC4)cc23)ccc1CNC(=O)c1noc(C(C)(C)C)n1 (stereo not shown) [Example 180, 5-(tert-butyl)-N-(4-(6-(4-(9-(4-((2,6-dioxopiperidin-3-yl)oxy)benzamido)nonanoyl)piperazin-1-yl)pyrrolo[2,1-f][1,2,4]triazin-4-yl)-2-methylbenzyl)-1,2,4-oxadiazole-3-carboxamide]
Cc1cc(-c2ncnn3cc(N4CCN(C(=O)CCC5CCCN5C(=O)c5ccc(OC6CCC(=O)NC6=O)cc5)CC4)cc23)ccc1CNC(=O)c1noc(C(C)(C)C)n1 (stereo not shown) [Example 181, 5-(tert-butyl)-N-(4-(6-(4-(3-(1-(4-((2,6-dioxopiperidin-3-yl)oxy)benzoyl)pyrrolidin-2-y1)propanoyl)piperazin-1-yl)pyrrolo[2,1-f][1,2,4]triazin-4-yl)-2-methylbenzyl)-1,2,4-oxadiazole-3-carboxamide]
Cc1cc(-c2ncnn3cc(N4CCN(C(=O)CCCCC5CCN(C(=O)c6ccc(OC7CCC(=O)NC7=O)cc6)CC5)CC4)cc23)ccc1CNC(=O)c1noc(C(C)(C)C)n1 (stereo not shown) [Example 182, 5-(tert-butyl)-N-(4-(6-(4-(5-(1-(4-((2,6-dioxopiperidin-3-yl)oxy)benzoyl)piperidin-4-yl)pentanoyl)piperazin-1-yl)pyrrolo[2,1-f][1,2,4]triazin-4-yl)-2-methylbenzyl)-1,2,4-oxadiazole-3-carboxamide]
Cc1cc(-c2ncnn3cc(N4CCN(C(=O)CCc5ccccc5CNC(=O)c5ccc(OC6CCC(=O)NC6=O)cc5)CC4)cc23)ccc1CNC(=O)c1noc(C(C)(C)C)n1 (stereo not shown) [Example 183, 5-(tert-butyl)-N-(4-(6-(4-(3-(2-((4-((2,6-dioxopiperidin-3-yl)oxy)benzamido)methyl)phenyl)propanoy 1)piperazin-1-yl)pyrrolo[2,1-f][1,2,4]triazin-4-y1)-2-methylbenzyl)-1,2,4-oxadiazole-3-carboxamide]
Cc1cc(-c2ncnn3cc(N4CCN(C(=O)CCCC5CN(C(=O)c6ccc(OC7CCC(=O)NC7=O)cc6)C5)CC4)cc23)ccc1CNC(=O)c1noc(C(C)(C)C)n1 (stereo not shown) [Example 184, 5-(tert-butyl)-N-(4-(6-(4-(4-(1-(4-((2,6-dioxopiperidin-3-yl)oxy)benzoyl)azetidin-3-yl)butanoyl)piperazin-1-yl)pyrrolo[2,1-f][1,2,4]triazin-4-yl)-2-methylbenzyl)-1,2,4-oxadiazole-3-carboxamide]
Cc1cc(-c2ncnn3cc(N4CCN(C(=O)CC5CC6(C5)CN(C(=O)c5ccc(OC7CCC(=O)NC7=O)cc5)C6)CC4)cc23)ccc1CNC(=O)c1noc(C(C)(C)C)n1 (stereo not shown) [Example 185, 5-(tert-butyl)-N-(4-(6-(4-(2-(2-(4-((2,6-dioxopiperidin-3-yl)oxy)benzoyl)-2-azaspiro[3.3]heptan-6-yl)acetyl)piperazin-1-yl)pyrrolo[2,1-f][1,2,4]triazin-4-yl)-2-methylbenzyl)-1,2,4-oxadiazole-3-carboxamide]

DC50, > 1000 nM:
Cc1cc(-c2ncnn3cc(N4CCN(C(=O)c5cn(CCNC(=O)c6ccc(OC7CCC(=O)NC7=O)cc6)nn5)CC4)cc23)ccc1CNC(=O)c1noc(C(C)(C)C)n1 (stereo not shown) [Example 177, 5-(tert-butyl)-N-(4-(6-(4-(1-(2-(4-((2,6-dioxopiperidin-3-yl)oxy)benzamido)ethyl)-1H-1,2,3-triazole-4-carbonyl)piperazin-1-yl)pyrrolo[2,1-f][1,2,4]triazin-4-yl)-2-methylbenzyl)-1,2,4-oxadiazole-3-carboxamide]
